Earlier results as cited in PMC4365270 (Cancer Chemotherapy and Pharmacology, 2015).

Parameters: method as in earlier work
Settings: higher doses; cited from earlier work

Compound: CC[C@H](NC(=O)[C@H](C)NC)C(=O)N1C[C@@H](O)C[C@H]1Cc1c(-c2[nH]c3cc(F)ccc3c2C[C@@H]2C[C@H](O)CN2C(=O)[C@H](CC)NC(=O)[C@H](C)NC)[nH]c2cc(F)ccc12 [birinapant]
- Bell’s Palsy syndrome: increased incidence
